How the values were obtained:
carboxylesterase = conditions: carboxylesterase-mediated; rest eliminated through alternative pathways; cited from earlier work
[1] = test system: SY5Y-TrkB human neuroblastoma cells; test: Tumor growth inhibition in the murine xenograft model of neuroblastoma; assay type: in vivo, athymic nu/nu mice; conditions: three weeks
Method: For xenograft studies, athymic nu/nu mice (nine animals per group) were injected in the flank with 10^7 SY5Y-TrkB human neuroblastoma cells in 0.3 mL […]™ matrix (BD Biosciences, Franklin Lakes, N.J.). Treatment was started when the average SY5Y-TrkB tumor size was 0.2 cm^3. Nanoparticles were administered intravenously through the tail vein twice a week at a dose equivalent to 10 mg/kg of SN-38 per injection for comparison against a ‘no treatment’ control and a clinically used irinotecan formulation (CAMPTOSAR®, Pfizer, given orally five times a week at a therapeutically relevant dose of 10 mg/kg as described in Thompson J. et al., Efficacy of oral irinotecan against neuroblastoma xenografts, Anticancer Drugs. 1997 April; 8(4):313-22). Tumor size in each group was measured daily over a period of three weeks. […] The error bars in FIG. 2A represent standard deviations.
Tumor growth inhibition by PLA-PEG nanoparticles loaded with an SN-38 conjugate with tocopherol succinate (made according to Example 7) was administered over 4 weeks at indicated dose regimens (each injection equivalent to 10 mg SN-38/kg) to animals xenografted as in Example 8. The effect is shown in comparison to irinotecan administered 5 times a week for 4 weeks at the same dose per injection. Animals were sacrificed after their tumors reached 3 cm^3. […]

## CCc1c2c(nc3ccc(OC(=O)N4CCC(N5CCCCC5)CC4)cc13)-c1cc3c(c(=O)n1C2)COC(=O)[C@]3(O)CC [irinotecan]
carboxylesterase
  rate of conversion to the pharmacologically active SN-38: less than 10%
[1]; CAMPTOSAR given orally five times a week at 10 mg/kg (50 mg/kg per week)
  efficacy on tumor size (FIG. 2A): showed efficacy vs. ‘no treatment’ control
[1]; CAMPTOSAR given orally five times a week at 10 mg/kg, vs 'no treatment' control
  animal survival (FIG. 2B): significantly improved animal survival compared with the control group
